# Results as given in PubChem BioAssay AID1645865 (Buhrlage Lab, Dana-Farber Cancer Institute and Novartis …, 2021).
# Active and inactive are the calls of the source.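 How the source made its calls: active means maximal inhibition of the USP30 enzyme reaching 30% or more across the dose series; inactive means the rest.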
# Molecular target: Ubiquitin carboxyl-terminal hydrolase 30 (Homo sapiens) (UniProt Q70CQ3)
# Experiment: ubiquitin-specific protease 30 DUB inhibitors, concentration-effect, biochemical, validation of primary actives (AID 1645865)
# Details: purified USP30, Ub-rhodamine cleavage, fluorescence, 2 h
# Chain of Ubiquitin carboxyl-terminal hydrolase 30 (Homo sapiens) (Q70CQ3 whole entry, looked up): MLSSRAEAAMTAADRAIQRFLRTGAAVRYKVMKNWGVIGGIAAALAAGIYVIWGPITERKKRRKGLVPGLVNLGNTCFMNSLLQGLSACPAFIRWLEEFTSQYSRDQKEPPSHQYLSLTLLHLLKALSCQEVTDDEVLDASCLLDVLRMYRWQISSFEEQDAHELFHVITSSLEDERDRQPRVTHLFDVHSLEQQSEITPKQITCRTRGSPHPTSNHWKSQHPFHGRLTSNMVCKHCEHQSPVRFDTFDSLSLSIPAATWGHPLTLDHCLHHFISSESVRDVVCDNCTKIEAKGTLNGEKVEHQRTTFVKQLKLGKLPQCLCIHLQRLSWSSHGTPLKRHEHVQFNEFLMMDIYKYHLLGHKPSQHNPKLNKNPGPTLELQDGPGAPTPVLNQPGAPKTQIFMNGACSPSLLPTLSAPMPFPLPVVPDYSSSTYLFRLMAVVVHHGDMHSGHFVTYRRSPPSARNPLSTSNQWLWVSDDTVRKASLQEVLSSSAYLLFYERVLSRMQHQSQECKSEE
row,SMILES,IC50
1,COc1ccc(-c2cc3c(=O)n(CC(=O)Nc4ccccc4F)ccn3n2)cc1OC,11.8 µM
2,Cn1c2ccccc2c(=O)c2c(=O)n(Cc3ccccc3)c(-c3ccccc3F)nc21,0.111 µM
3,Cc1cccc(NC(=O)Nc2nnc(CC(=O)NCc3ccccc3)s2)c1,6.01 µM
4,O=C(/C=C/c1ccc(F)cc1)N1CCc2ccccc2C1,> 50 µM (inactive)
5,Cc1nn(-c2ccc([N+](=O)[O-])cc2)c(C)c1-c1nc2ccccc2[nH]1,23.6 µM
6,O=C(CSc1ncnc2c1oc1ccccc12)Nc1ccc2c(c1)OCCO2,18.7 µM
7,COc1cc(N)c(Cl)cc1C(=O)OCC(=O)c1ccc2c(c1)OCCO2,> 50 µM (inactive)
8,Cc1ccc(NC(=O)CCC(=O)Nc2ccc3nc(N4CCCCC4)cc(C)c3c2)c(Br)c1,36.4 µM
9,COc1cc(NC(=O)Cc2ccccc2)ccc1NC(=O)c1cc2ccccc2o1,2.32 µM
10,O=C(Cn1cnc2ccccc21)Nc1ccc2c(c1)CCC2,42.6 µM
11,COc1ccc(OC)c2c(C)cc(N3CCN(S(=O)(=O)c4ccc5c(c4)CCCN5S(C)(=O)=O)CC3)nc12,20.9 µM
12,CC(OC(=O)c1ccc2c(c1)OCCO2)C(=O)NCC1CCCCC1 (configuration not stated),31.3 µM
13,c1ccc2c(c1)ccc1nnc(-c3ccc4c(c3)OCO4)n12,> 50 µM (inactive)
14,Cc1nnc(NCc2cccnc2)c2c1nnn2Cc1ccccc1Cl,28.3 µM
15,O=C(COC(=O)c1cc2c(s1)CCC2)c1ccc2[nH]c(=O)[nH]c2c1,> 50 µM (inactive)
16,CC(=O)N1CCc2cc(S(=O)(=O)NC(Cc3ccccc3)C(=O)Nc3cccc(Cl)c3C)ccc21 (configuration not stated),3.47 µM
17,O=C(CN1C=NC2=NS(=O)(=O)c3ccccc3N21)Nc1cc(F)ccc1F,36.6 µM
18,CCOc1ccc(CCNC(=O)c2ccc3c(c2)N(CC)C(=O)c2ccccc2S3)cc1OCC,> 50 µM (inactive)
19,COc1cccc(NC(=O)C2Cc3ccccc3N2C(=O)c2ccccc2)c1 (configuration not stated),22.2 µM
20,O=[N+]([O-])c1cccc(CSc2nnc(/C=C/c3ccccc3)o2)c1,> 50 µM (inactive)
21,COc1ccccc1OCc1ccc(C(=O)Nc2ccc(F)cc2C)cc1,28.3 µM
22,Cc1nc(CN2CCn3c(Cn4cccn4)cnc3C2C)cs1 (configuration not stated),> 50 µM (inactive)
23,CCc1nc2cc(NC(=O)c3cccc(N4CCCC4=O)c3)ccc2n1C,> 50 µM (inactive)
24,COC(=O)c1ccc(NC(=O)CSc2nnc(-c3ccc(O)cc3)n2Cc2ccco2)cc1,4.38 µM
25,O=c1[nH]c(C2CCN(S(=O)(=O)c3ccc(S(=O)(=O)NC4CCCC4)cc3)CC2)nc2c1nnn2Cc1cccc(Cl)c1,> 50 µM (inactive)

row,SMILES,IC50
1,COC(=O)c1ccc2c(=O)n(CCCCCC(=O)NCCc3ccc(S(N)(=O)=O)cc3)c(=O)[nH]c2c1,6.13 µM
2,COc1ccc(CCNC(=O)CCCCn2c(=O)c3ccccc3n(Cc3cccc(Cl)c3)c2=O)cc1OC,24.6 µM
3,COc1ccc(CCNC(=O)[C@H](CCSC)NC(=O)N2CCn3c2nc2ccccc23)cc1OC,44 µM
4,O=C(NCCCc1nc2ccccc2n1Cc1c(Cl)cccc1Cl)c1ccco1,25 µM
5,CCN(CC)c1nc(F)c2c(c1F)S(=O)(=O)CCN2Cc1cccnc1,> 50 µM (inactive)
6,Cc1cccc(NC(=O)CN2C(=O)COc3cc(S(=O)(=O)N4CCCC4)ccc32)c1C,21.4 µM
7,O=C(Nc1cccc(Cl)c1)N1CCN(c2cc(C(F)(F)F)ccn2)CC1,8.77 µM
8,CC(NC(=O)c1ccccc1)c1nc2ccccc2n1CC(=O)Nc1ccc2c(c1)OCO2 (configuration not stated),2.06 µM
9,CCCc1nc2sc3c(NCCN4CCOCC4)ncnc3c2c2c1CCC2,> 50 µM (inactive)
10,COc1ccc(NC(=O)CC(=O)c2ccc([N+](=O)[O-])cc2)cc1S(=O)(=O)Nc1ccc(Br)cc1,33 µM
11,Cc1ccc(C)c(-n2c(N)c(C(=O)NCCc3ccccc3)c3nc4ccccc4nc32)c1,> 50 µM (inactive)
12,Fc1ccc(-c2noc(-c3nnc(NCc4cccnc4)c4ccccc34)n2)cc1,1.92 µM
13,Cc1nn(C)c2c1[C@@H](c1ccc(F)cc1)[C@H](NC(=O)c1ccccc1)C(=O)N2,> 50 µM (inactive)
14,CC1CCN(c2cc(-n3cnc(C(=O)N4CCCC(C)C4)c3)ncn2)CC1 (configuration not stated),> 50 µM (inactive)
15,CC(C)c1cc2c(c(O)c1O)[C@@]13CCCC(C)(C)[C@@H]1C[C@@H]2OC3=O,26.6 µM
16,CN1C(=O)COc2cc(-c3noc(C(=O)NC4CCCCCC4)n3)ccc21,24.7 µM
17,O=C(c1ccco1)N1CCCC2(C1)Nc1cccnc1NC2=NC1CCCC1 (configuration not stated),> 50 µM (inactive)
18,Cc1cc(C(=O)Nc2ccc3c(c2)OCCO3)no1,> 50 µM (inactive)
19,CCN(C(=O)c1cc2c(Cl)nc3ccccc3c2s1)c1ccccc1F,> 50 µM (inactive)
20,COc1ccc(C(=O)Nc2ccc3c(c2)Sc2ncccc2C(=O)N3C)cn1,> 50 µM (inactive)
21,O=C(Cn1nc2c3c4c(sc3ncn2c1=O)CCCCC4)Nc1ccc(Cl)cc1F,1.49 µM
22,COc1ccc(-c2nc(Cn3nnc(C(=O)Nc4ccc(C)cc4C)c3N)c(C)o2)cc1,> 5 µM (inactive)
23,CC(C)(C)C(=O)C1C2C(=O)N(c3ccc4c(c3)OCO4)C(=O)C2C2c3ccccc3C=CN12 (configuration not stated),> 50 µM (inactive)
24,CCCCN1CC(C(=O)Nc2ccc(C(=O)Nc3ccc(Cl)cc3)cc2)CC1=O (configuration not stated),2.21 µM
25,C=C1CCC2[C@](C)(CCC[C@]2(C)C(=O)OC)[C@H]1CCc1ccoc1CNC(C)C (some centres not stated),> 50 µM (inactive)

row,SMILES,IC50
1,CC1(C)OC2=C(C(=O)c3cc(O)cc(O)c3C2=O)c2cc(CO)c(O)cc21,> 50 µM (inactive)
2,N#Cc1c(Cl)cccc1Oc1ccc(S(=O)(=O)N2CCC(O)CC2)cc1,19.6 µM
3,N#Cc1cccnc1N1CCN(C(=O)Nc2cccc3ccccc23)CC1,> 50 µM (inactive)
4,COc1cccc(CC(=O)Nc2cc(F)c3nc(N4CCOCC4)ccc3c2)c1,> 50 µM (inactive)
5,FC(F)(F)c1cccc(N2CCN(c3nc4ccccc4n4nnnc34)CC2)c1,> 50 µM (inactive)
6,Cc1ccc(S(=O)(=O)N(C)C)cc1NC(=O)Cc1ccc(Cl)c(Cl)c1,> 50 µM (inactive)
7,COc1cccc2cc(C(=O)Nc3ccc4c(c3)OCCO4)oc12,> 50 µM (inactive)
8,Cc1ccc2cc3c(nc2n1)CCN(Cc1ccc(F)cc1)C3,> 50 µM (inactive)
9,CCCCNC(=O)c1cc2cccnc2n(Cc2ccccc2)c1=O,> 50 µM (inactive)
10,COc1c(O)c(O)c2c(=O)cc(-c3ccc(O)cc3)oc2c1OC,> 50 µM (inactive)
11,Nc1ncnc(SCc2ccc(Cl)cc2)n1,17.1 µM
12,O=c1c2cnc(N3CCCCC3)nc2ccn1CCc1ccccc1,2.44 µM
13,O=C(Nc1ccccc1)C1CCCN(C(=O)c2cc3ccccc3[nH]2)C1 (configuration not stated),25.3 µM
14,Cc1ccc(C)c(Nc2cc(C)nc3nc(-c4ccco4)nn23)c1,> 50 µM (inactive)
15,N#Cc1ccc(NC(=O)c2ccc(S(=O)(=O)N3CCCCC3)cc2)cc1,8.97 µM
16,COC(=O)C1C(c2ccc(Cl)cc2Cl)C2(C(=O)c3ccccc3C2=O)C2C=Cc3ccccc3N12 (configuration not stated),> 50 µM (inactive)
17,CCOc1ccc2[nH]c(=O)c(CN(C(=O)c3cccs3)C3CCCC3)cc2c1,10.2 µM
18,C/C1=C/C=C/[C@H](C)[C@H](O)[C@@H](C)[C@@H](O)[C@@H](C)[C@H](O)[C@H](C)[C@@H](O)[C@@H](C)/C=C(/C)C(=O)c2c(O)c(C)cc3c2C(=O)C=C(NC1=O)C3=O,> 50 µM (inactive)
19,Cc1ccc(C(=O)Nc2ccc3nccnc3c2)cc1,34.3 µM
20,C/C=C\C1=CC(=O)[C@]23C[C@H]2[C@]2(C)CO[C@@]1(O)[C@@]3(O)O2,> 50 µM (inactive)
21,CC1CCCN1C(=O)c1ccn(-c2ccc3ccc(-c4cccnc4)cn23)n1 (configuration not stated),> 50 µM (inactive)
22,Cc1sc2nc(CN3CCCC3)nc(NCCc3ccc(Cl)cc3)c2c1C,> 50 µM (inactive)
23,CCc1ccc(NC(=O)COC(=O)c2n[nH]c3ccccc23)cc1,4.4 µM
24,O=C(Nc1ccc2c(c1)OCCO2)c1ccc(N2CCCCC2)nn1,> 50 µM (inactive)
25,COc1ccc(-c2nc(SCC(=O)Nc3ccc(C(C)=O)cc3)n[nH]2)cc1,11.1 µM

row,SMILES,IC50
1,CCN1C(=O)c2cccnc2Sc2cc(NC(=O)c3ccc(Cl)s3)ccc21,> 50 µM (inactive)
2,O=C(NCc1cccc(NC(=O)C2CC2)c1)Nc1cccc2ccccc12,21.7 µM
3,C/C=C(\Cl)C1=CC(=O)[C@]23C[C@H]2[C@@]2(C)CO[C@@]1(O)[C@@]3(O)O2,> 50 µM (inactive)
4,O=C(c1cc(-c2ccc(Cl)cc2)n[nH]1)N1CCN(C(=O)c2ccco2)CC1,31.7 µM
5,COc1ccccc1CC(=O)Nc1nc2ccccc2[nH]1,28.4 µM
6,CC(=O)Nc1cc2cc(-n3cccc3)ccc2oc1=O,> 50 µM (inactive)
7,COc1ccc(-c2[nH]c3ccccc3c2SCCNC(=O)c2ccc(S(=O)(=O)N3CCOCC3)cc2)cc1,28.7 µM
8,O=C(c1ccc(COc2cccc3ccccc23)o1)N1CCC(Cc2ccccc2)CC1,> 50 µM (inactive)
9,Cc1c(C(=O)c2ccccc2)c2ccccn2c1CCc1ccccn1,> 50 µM (inactive)
10,Cc1cc(O)c(Oc2cc(C)cc(O)c2O)c(O)c1,33.1 µM
11,Cc1cccc(O)c1-c1nc2c(-c3nc4c(C(=O)O)cccc4o3)cccc2o1,> 50 µM (inactive)
12,COc1cnc(-c2ccccn2)nc1Sc1ccccc1Cl,2.89 µM
13,CCN(c1ccc(NC(=O)CSc2nnc(-c3ccccc3)n2-c2ccc(OC)c(OC)c2)cc1)C(C)C,2.07 µM
14,CC(C(=O)NCCc1ccccc1)n1nc(-c2ccccc2)c2cc(Cl)ccc21 (configuration not stated),25.4 µM
15,Cc1cccc(C(=O)N2CCN3Cc4ccccc4N(C)CC3C2)c1 (configuration not stated),> 50 µM (inactive)
16,O=C(/C=C/c1c(F)cccc1Cl)N1CCc2ccccc2C1,> 50 µM (inactive)
17,Cc1ccc2[nH]c(=O)c(CN(Cc3cccnc3)C(=O)c3cccc(Cl)c3)cc2c1,> 50 µM (inactive)
18,COc1ncccc1CN1CCn2c(Cn3cccn3)cnc2C1C (configuration not stated),> 50 µM (inactive)
19,O=c1[nH]c2ccccc2cc1CN(Cc1ccco1)S(=O)(=O)c1ccc(F)cc1,> 50 µM (inactive)
20,Nc1c(C(=O)NCCc2ccccc2)nnn1-c1ccc(F)cc1,31.2 µM
21,O=C(Nc1ccc2sccc2c1)c1ccc(F)cc1,35.4 µM
22,CC(C)CCCCCCCCCCC(=O)N(C)[C@H](CO)C(=O)N[C@H](C)C(=O)NCC(=O)N(C)C1C(=O)N[C@@H](C)C(=O)NC(C(=O)O)Cc2ccc(O)c(c2)-c2cc1ccc2O (some centres not stated),> 50 µM (inactive)
